Test results taken from patent US20040235939A1, “Synthesis of peloruside a and analogs thereof for use as antitumor agents” (priority 2003, published 2004).
Where two headings read alike, the source gives them in different places.

Experiments:
[1] = system: HCT-116; test: SRB cytotoxicity assay, HCT-116; type: cell-based; conditions: Homo sapiens, HCT-116, Colon, read-out: GI50
Description: (§1) Cells were treated on Days 1, 3, 5, and 7 with 5 μL of media, vehicle, or drug. Peloruside A was resuspended in 0.1% DMSO and added to wells to a final concentration of 0.01, 0.1, 1, 10 or 100 nM. Taxol® (Sigma-Aldrich) was resuspended in 0.1% ethanol and added to cells to a final concentration of 0.1, 1, 10, 100, or 1000 nM.
(§2) The amount of surviving cells was measured using the sulforhodamine B (SRB) assay as previously described (Skehan et al., New colorimetric cytotoxicity assay for anticancer-drug screening. J. Natl. Cancer Inst., 1990. 82(13): p. 1107-12). Cells were fixed on Days 5, 7, and 9 (representing 4, 6, and 8 days of exposure to drug or control, respectively) with 50% (w/v) trichloroacetic acid for 1 hour at 4° C., rinsed thoroughly with water, and dried overnight. The dried cells were stained with 4% sulforhodamine B in 1% acetic acid, rinsed thoroughly and dried overnight. The bound dye was resuspended in 10 mM Tris and the absorbance was read at 492 nm. Percent growth inhibition (GI) was calculated as follows: %GI=(1−(absorbance sample/absorbance vehicle))×100. The absorbance value for each drug concentration and control represents the average of 6 replicates. The %GI was plotted against the log[drug] to generate the growth curves. The concentration of drug required to inhibit growth by 50% (GI50) was calculated for each time point.

[2] = system: HCT-15; test: SRB cytotoxicity assay, HCT-15; type: cell-based; conditions: Homo sapiens, HCT-15, Colon, read-out: GI50
Description: as §1, §2

[3] = system: Capan-1; test: SRB cytotoxicity assay, Capan-1; type: cell-based; conditions: Homo sapiens, Capan-1, Pancreas, read-out: GI50
Description: as §1, §2

[4] = system: NCI-H1395; test: SRB cytotoxicity assay, NCI-H1395; type: cell-based, human; conditions: NCl-H1395, Lung
Description: as §1, §2

[5] = system: A498; test: SRB cytotoxicity assay, A498; type: cell-based; conditions: Homo sapiens, A498, Renal, read-out: GI50
Description: as §1, §2

[6] = system: BSC-1 (Monkey Kidney epithelial) cells; test: Immunofluorescent staining of tubulin in BSC-1 cells; type: cell-based; conditions: 200 nM of Taxol® or 50 nM of Peloruside A
[7] = system: Hep-G2; test: SRB cytotoxicity assay, Hep-G2; type: cell-based; conditions: Homo sapiens, Hep G2, Liver, read-out: GI50
Description: as §1, §2

[8] = system: NCI-H23; test: SRB cytotoxicity assay, NCI-H23; type: cell-based; conditions: Homo sapiens, NCl-H23, Lung, read-out: GI50
Description: as §1, §2

[9] = system: ptx10 cells; test: Cell Titer-Glo cell viability, Taxol-resistant ptx10 cells; conditions: Homo sapiens, PTX10, 48 h, read-out: concentration to reduce cell viability to approximately 50%
Description: (§3) These cell lines have specific amino acid mutations in tubulin that prevent Taxol®-binding. […] Synthetic (+)-Peloruside A was used for the present example.
(§4) 1A9, ptx10 and ptx22 cells were plated in 96-well plates to approximately 50% confluency. On the next day, Taxol® or Peloruside A was added to each well and incubated for 48 hours. A final concentration of 1, 2, 3, 4, 5, 8, 10, 20, 30, 50, 100, 300, 500, or 1000 nM of Taxol® was used. A final concentration of 10, 20, 30, 40, 50 or 70 nM of Peloruside A was used. Cell viability was measured using the Cell Titer-Glo Luminescent Cell Viability Assay (Promega). FIGS. 80-82 show bar graphs of cell viability at various concentrations of Peloruside A and Taxol®.

[10] = system: MDA-MB-231; test: SRB cytotoxicity assay, MDA-MB-231; type: cell-based; conditions: Homo sapiens, MB-MDA-231, Breast, read-out: GI50
Description: as §1, §2

[11] = system: SK-MEL-28; test: SRB cytotoxicity assay, SK-MEL-28; type: cell-based; conditions: Homo sapiens, SK-MEL-28, Melanoma, read-out: GI50
Description: as §1, §2

[12] = system: ptx22 cells; test: Cell Titer-Glo cell viability, Taxol-resistant ptx22 cells; conditions: Homo sapiens, 48 h, read-out: concentration to reduce cell viability to approximately 50%
Description: as §3, §4

[13] = system: DU-145; test: SRB cytotoxicity assay, DU-145; type: cell-based; conditions: Homo sapiens, DU-145, Prostate, read-out: GI50
Description: as §1, §2

[14] = system: NCI-H2887; test: SRB cytotoxicity assay, NCI-H2887; type: cell-based, human; conditions: NCl-H2887, Lung
Description: as §1, §2

[15] = system: LoVo; test: SRB cytotoxicity assay, LoVo; type: cell-based; conditions: Homo sapiens, Colon, read-out: GI50
Description: as §1, §2

[16] = system: SK-HEP-1; test: SRB cytotoxicity assay, SK-HEP-1; type: cell-based; conditions: Homo sapiens, SK-HEP-1, Liver, read-out: GI50
Description: as §1, §2

[17] = system: SK-OV-3; test: SRB cytotoxicity assay, SK-OV-3; type: cell-based; conditions: Homo sapiens, SK-OV-3, Ovarian, read-out: GI50
Description: as §1, §2

[18] = system: CAKI-1; test: SRB cytotoxicity assay, CAKI-1; type: cell-based; conditions: Homo sapiens, CAK1-1, Renal, read-out: GI50
Description: as §1, §2

[19] = system: BT-549; test: SRB cytotoxicity assay, BT-549; type: cell-based; conditions: Homo sapiens, BT-549, Breast, read-out: GI50
Description: as §1, §2

[20] = system: NCI-H460; test: SRB cytotoxicity assay, NCI-H460; type: cell-based; conditions: Homo sapiens, NCl-H460, Lung, read-out: GI50
Description: as §1, §2

[21] = system: PC-3; test: SRB cytotoxicity assay, PC-3; type: cell-based; conditions: Homo sapiens, PC-3, Prostate, read-out: GI50
Description: as §1, §2

Q: With `CC(=O)O[C@H]1C(=O)[C@@]2(C)[C@H]([C@H](OC(=O)c3ccccc3)[C@]3(O)C[C@H](OC(=O)[C@H](O)[C@@H](NC(=O)c4ccccc4)c4ccccc4)C(C)=C1C3(C)C)[C@]1(OC(C)=O)CO[C@@H]1C[C@@H]2O` [Paclitaxel, paclitaxel, reference compound] as the compound, how does the GI50 ([1]; 96 h, 4 Days) read?
A: 1 nM

Q: What about the GI50 ([1]; 144 h, 6 Days) of the same compound?
A: 0.58 nM

Q: And the GI50 ([1]; 192 h, 8 Days)?
A: 0.3 nM

Q: And the GI50 ([2]; 96 h, 4 Days)?
A: 49.1 nM

Q: And the GI50 ([2]; 144 h, 6 Days)?
A: 24 nM

Q: What about the GI50 ([2]; 192 h, 8 Days) of the same compound?
A: 26.7 nM

Q: And the GI50 ([3]; 96 h, 4 Days)?
A: 5.68 nM

Q: And the GI50 ([3]; 144 h, 6 Days)?
A: 0.91 nM

Q: What about the GI50 ([3]; 192 h, 8 Days) of the same compound?
A: 1.43 nM

Q: And the GI50 ([4]; Homo sapiens, NCI-H1395, 144 h, 6 Days, read-out: GI50)?
A: 6.81 nM

Q: And the GI50 ([4]; Homo sapiens, NCI-H1395, 192 h, 8 Days, read-out: GI50)?
A: 5.27 nM

Q: And the GI50 ([4]; 4 Days)?
A: 4 Days: Resistant

Q: And the GI50 ([5]; 96 h, 4 Days)?
A: 46.1 nM

Q: And the GI50 ([5]; 144 h, 6 Days)?
A: 9.75 nM

Q: What about the GI50 ([5]; 192 h, 8 Days) of the same compound?
A: 7.57 nM

Q: And the “formation of a bipolar spindle” value [6]?
A: the bipolar spindle does not form

Q: And the GI50 ([7]; HepG2, 96 h, 4 Days)?
A: 2.82 nM

Q: And the GI50 ([7]; HepG2, 144 h, 6 Days)?
A: 0.47 nM

Q: What about the GI50 ([7]; HepG2, 192 h, 8 Days) of the same compound?
A: 0.63 nM

Q: And the GI50 ([8]; NCI-H23, 96 h, 4 Days)?
A: 1 nM

Q: And the GI50 ([8]; NCI-H23, 144 h, 6 Days)?
A: 1.12 nM

Q: And the GI50 ([8]; NCI-H23, 192 h, 8 Days)?
A: 0.18 nM

Q: What about the IC50 [9] of the same compound?
A: > 100 nM

Q: And the GI50 ([10]; MDA-MB-231, 144 h, 6 Days)?
A: 0.09 nM

Q: What about the GI50 ([10]; MDA-MB-231, 192 h, 8 Days) of the same compound?
A: 0.01 nM

Q: And the GI50 ([11]; 96 h, 4 Days)?
A: 0.76 nM

Q: And the GI50 ([11]; 144 h, 6 Days)?
A: 0.2 nM

Q: And the GI50 ([11]; 192 h, 8 Days)?
A: 0.01 nM

Q: And the IC50 [12]?
A: > 100 nM

Q: And the GI50 ([13]; 96 h, 4 Days)?
A: 0.54 nM

Q: What about the GI50 ([13]; 144 h, 6 Days) of the same compound?
A: 0.53 nM

Q: And the GI50 ([13]; 192 h, 8 Days)?
A: 0.49 nM

Q: And the GI50 ([14]; Homo sapiens, NCI-H2887, 144 h, 6 Days, read-out: GI50)?
A: 643 nM

Q: And the GI50 ([14]; Homo sapiens, NCI-H2887, 192 h, 8 Days, read-out: GI50)?
A: 6.16 nM

Q: What about the GI50 ([14]; 4 Days) of the same compound?
A: 4 Days: Resistant

Q: And the GI50 ([15]; 96 h, 4 Days)?
A: 1.91 nM

Q: What about the GI50 ([15]; 144 h, 6 Days) of the same compound?
A: 1.95 nM

Q: And the GI50 ([15]; 192 h, 8 Days)?
A: 3.92 nM

Q: What about the GI50 ([16]; SK-HEP1, 96 h, 4 Days) of the same compound?
A: 5.6 nM

Q: And the GI50 ([16]; SK-HEP1, 144 h, 6 Days)?
A: 2.85 nM

Q: And the GI50 ([16]; SK-HEP1, 192 h, 8 Days)?
A: 0.45 nM

Q: And the GI50 ([17]; 144 h, 6 Days)?
A: 2.21 nM

Q: What about the GI50 ([17]; 192 h, 8 Days) of the same compound?
A: 1.07 nM

Q: And the GI50 ([18]; CAKI-1, 96 h, 4 Days)?
A: 4.52 nM

Q: What about the GI50 ([18]; CAKI-1, 144 h, 6 Days) of the same compound?
A: 1.21 nM

Q: And the GI50 ([18]; CAKI-1, 192 h, 8 Days)?
A: 1.17 nM

Q: What about the GI50 ([19]; 96 h, 4 Days) of the same compound?
A: 1.76 nM

Q: What about the GI50 ([19]; 144 h, 6 Days) of the same compound?
A: 1.2 nM

Q: And the GI50 ([19]; 192 h, 8 Days)?
A: 0.18 nM

Q: And the GI50 ([20]; NCI-H460, 96 h, 4 Days)?
A: 0.25 nM

Q: And the GI50 ([20]; NCI-H460, 144 h, 6 Days)?
A: 0.57 nM

Q: And the GI50 ([20]; NCI-H460, 192 h, 8 Days)?
A: 0.56 nM

Q: And the GI50 ([21]; 96 h, 4 Days)?
A: 0.78 nM

Q: And the GI50 ([21]; 144 h, 6 Days)?
A: 0.47 nM

Q: And the GI50 ([21]; 192 h, 8 Days)?
A: 0.27 nM
